This assay deals with RAW-Blue cells. In words: Inverse RAW-Blue assay after conversion by α-Mannosidase or AT3B-1 cells. The format is cell-based. The procedure:
α-Mannosidase from Canavalia ensiformis (Jack bean) was used directly from the bottle to make a 1 U/mL stock solution in DPBS. Before administering the enzyme, the solution was filtered through a sterile 0.2 μm syringe filter to yield the working stock solution. 20 μL of the working stock solution was added to wells requiring exogenous enzyme to achieve a 0.1 U/mL α-Mannosidase concentration.
For inverse RAW-Blue assays, pro-immunostimulant (12) was first converted to Imiquimod by either exogenous α-Mannosidase (0.1 U/well) or via AT3B-1 cell metabolism prior to RAW-Blue exposure. To accomplish this, pro-immunostimulant (12) and controls were dosed at a concentration 10× the desired concentration to be administered to immune cells. For instance, to investigate the effects on RAW-Blue stimulation of a 10 μM dose of pro-immunostimulant […] the following steps would be taken: First, in an optically clear bottomed 96-well plate, wells were prepared to contain 180 μL of complete AT3B-1 cell media (without doxorubicin) and either α-Mannosidase or the desired AT3B-1 cell density (cells were given a minimum of 60 mins to adhere). Second, a 100 μM dose of (12) in DPBS was administered to the wells and total well volumes were adjusted to 200 μL with complete cell media (without doxorubicin). Cells were incubated (37° C., 5% CO2) for 24-72 h. […]

Structures are written as SMILES.

Consider `CC(C)Cn1cnc2c(NC(=O)OCc3ccc(O[C@H]4O[C@H](CO)[C@@H](O)[C@H](O)[C@@H]4O)c([N+](=O)[O-])c3)nc3ccccc3c21` [compound 12], for which, under “10 μM, exogenous α-Mannosidase and AT3B-1 driven conversion to Imiquimod”, the “immunogenicity (RAW-Blue activation)” value was “confers immunogenicity”. Further, the RAW-Blue activity result (without a conversion driver) was “abrogated activity”.

Source of the values: US11117918B2, “Enzyme-directed immunostimulant and uses thereof” (Washington State University, priority 2016, dated 2021).
